In brackets after ≈: the same amount, converted by molar mass. Like-named read-outs stand apart in the source and are kept apart here.
What was measured:
Type in all cases: cell-based
[1] = system: Staphylococcus epidermidis IAM 1296; experiment: MIC, Experiment 1; conditions: IAM1296, S. epidermidis IAM 1296, Gram +, read-out: Min. inhib. concentr. (MIC)
Protocol: The compounds of the present invention ([…] and Q) were each dissolved in dimethylsulfoxide to prepare a solution of 5000 μg/ml in concentration. The compounds of the present invention (I, J and K) and the known compound (Y) were each dissolved in sterilized distilled water to prepare a solution of 5000 μg/ml in concentration. […] The test was carried out by a method as appointed by Japan Society of Chemotherapy [cf. Chemotherapy, 29, 76-79 (1981), TOKYO]. As to Streptococcus pneumoniae and Streptococcus pyogenes, Brain heart infusion broth (manufactured by DIFCO) was used as the medium for the preculture thereof, and a heart infusion agar medium containing 5% defibrinated horse blood (manufactured by Nissui Seiyaku K. K., Japan) was used as the medium for the measurement of minimum inhibitory concentration (MIC). As to other microorganisms, a sensitivity test broth (manufactured by Nissui Seiyaku K. K.) was used as the medium for the preculture thereof, and a sensitivity test agar medium (manufactured by Nissui Seiyaku K. K.) was used as the medium for the measurement of MIC.

[2] = system: Staphylococcus aureus ATCC 9144; experiment: MIC, Experiment 1; conditions: ATCC9144, S. aureus ATCC 9144, Gram +, read-out: Min. inhib. concentr. (MIC)
Summary of the method: (§1)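 Stocks: 5000 μg/ml in DMSO or sterile distilled water; standard: 1000 μg/ml after water dilution. Method: Japan Society of Chemotherapy.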

[3] = system: Staphylococcus aureus FDA 243; experiment: MIC, Experiment 1; conditions: FDA243, S. aureus FDA 243, Gram +, read-out: Min. inhib. concentr. (MIC)
Summary of the method: as §1

[4] = system: Klebsiella pneumoniae PCI-602; experiment: MIC, Experiment 1; conditions: PCI602, K. pneumoniae PCI-602, Gram -, read-out: Min. inhib. concentr. (MIC)
Summary of the method: (§2)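 Stock solutions (5000 μg/ml, in DMSO or water) were diluted to 1000 μg/ml working standards. MICs were measured per the Japan Society of Chemotherapy procedure, with media matched to each organism: blood-supplemented heart infusion agar for S. pneumoniae and sensitivity test agar for the remaining strains.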

[5] = system: Streptococcus pyogenes Cook; experiment: MIC, Experiment 1; conditions: S. pyogenes Cook, Gram +, agar with 5% defibrinated horse blood, read-out: Min. inhib. concentr. (MIC)
Summary of the method: as §1

[6] = system: Streptococcus pneumoniae IID 552; experiment: MIC, Experiment 1; conditions: IID552, S. pneumoniae IID 552, Gram +, agar with 5% defibrinated horse blood, read-out: Min. inhib. concentr. (MIC)
Summary of the method: as §1

Bacillus cereus IAM 1029 = experiment: MIC, Experiment 1; conditions: IAM1029, B. cereus IAM 1029, Gram +, read-out: Min. inhib. concentr. (MIC)
Summary of the method: as §1

[7] = system: Streptococcus pyogenes Sv; experiment: MIC, Experiment 1; conditions: S. pyogenes Sv, Gram +, agar with 5% defibrinated horse blood, read-out: Min. inhib. concentr. (MIC)
Summary of the method: as §1

[8] = system: Acinetobacter calcoaceticus Ac 54; experiment: MIC, Experiment 1; conditions: AC54, A. calcoaceticus Ac 54, Gram -, read-out: Min. inhib. concentr. (MIC)
Summary of the method: as §2

[9] = system: Escherichia coli NIHJ JC-2; experiment: MIC, Experiment 1; conditions: NIHJJC2, E. coli NIHJ JC-2, Gram -, read-out: Min. inhib. concentr. (MIC)
Summary of the method: as §2

[10] = system: Staphylococcus aureus Terajima (IID 670); experiment: MIC, Experiment 1; conditions: IID670, S. aureus Terajima (IID 670), Gram +, read-out: Min. inhib. concentr. (MIC)
Summary of the method: as §1

[11] = system: Staphylococcus aureus FDA 209P JC-1; experiment: MIC, Experiment 1; conditions: FDA209P, S. aureus FDA 209P JC-1, Gram +, read-out: Min. inhib. concentr. (MIC)
Summary of the method: as §1

Enterobacter cloacae 963 = experiment: MIC, Experiment 1; conditions: E. cloacae 963, Gram -, read-out: Min. inhib. concentr. (MIC)
Summary of the method: as §2

[12] = system: Staphylococcus aureus IID 803; experiment: MIC, Experiment 1; conditions: IID803, S. aureus IID 803, Gram +, read-out: Min. inhib. concentr. (MIC)
Summary of the method: as §1

[13] = system: Streptococcus pyogenes Su; experiment: MIC, Experiment 1; conditions: S. pyogenes Su, Gram +, agar with 5% defibrinated horse blood, read-out: Min. inhib. concentr. (MIC)
Summary of the method: as §1

[14] = system: clinically isolated Enterococcus faecium; experiment: In vitro antibacterial activity against clinical isolates, Experiment 2
Summary of the method: (§3)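 Stock: compound diluted in sterile distilled water to 1000 μg/ml. Preculture: sensitivity test broth. MIC read-out: sensitivity test agar medium. Strains: clinical isolates, Nov. 1988–Jun. 1989.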

[15] = system: clinically isolated Staphylococcus epidermidis; experiment: as above; conditions: Staphylococcus epidermidis; for MIC90: 90% of strains, read-out: MIC90
Summary of the method: as §3

[16] = system: clinically isolated Enterococcus faecalis; experiment: as above
Summary of the method: as §3

[17] = system: clinically isolated Staphylococcus aureus; experiment: as above; conditions: for MIC / MIC50: 25 clinical strains S. aureus incl. 16 methicillin resistant; for MIC50: 50% of strains, read-out: MIC50
Summary of the method: as §3

[18] = 25 clinical strains E. faecium, 90% of strains, read-out: MIC90
[19] = 25 clinical strains S. epidermidis
[20] = 25 clinical strains E. faecalis
[21] = 25 clinical strains E. faecalis, 50% of strains, read-out: MIC50
[22] = 25 clinical strains E. faecalis, 90% of strains, read-out: MIC90

Compound | MIC [1] | MIC [2] | MIC [3] | MIC [4] | MIC [5] | MIC [6] | MIC (Bacillus cereus IAM 1029) | MIC [7] | MIC [8] | MIC [9] | MIC [10] | MIC [11] | MIC (Enterobacter cloacae 963) | MIC [12] | MIC [13] | MIC50 [14] | MIC ([14]; 25 clinical strains E. faecium) | MIC [15, 19] | MIC90 [15, 19] | MIC [16, 20] | other results
CCOCC1CN(c2c(F)cc3c(=O)c(C(=O)O)c4scc5n4c3c2N(C)C5)CCO1 (stereo not drawn) [Compound (Q), 9,1-(Methylimino)methano-7-fluoro-8-(2-ethoxymethylmorpholino)-5-oxo-5H-thiazolo[3,2-a]quinoline-4-carboxylic acid] | 0.1 µg/mL (≈ 0.223 µM) | 0.025 µg/mL (≈ 0.0559 µM) | 0.05 µg/mL (≈ 0.112 µM) | 0.2 µg/mL (≈ 0.447 µM) | 0.2 µg/mL (≈ 0.447 µM) | 0.39 µg/mL (≈ 0.872 µM) | 0.1 µg/mL (≈ 0.223 µM) | 0.39 µg/mL (≈ 0.872 µM) | 0.05 µg/mL (≈ 0.112 µM) | 0.78 µg/mL (≈ 1.74 µM) | 0.1 µg/mL (≈ 0.223 µM) | 0.1 µg/mL (≈ 0.223 µM) | 1.56 µg/mL (≈ 3.49 µM) | 0.05 µg/mL (≈ 0.112 µM) | 0.2 µg/mL (≈ 0.447 µM) | 3.13 µg/mL (≈ 6.99 µM) | 0.2 to 25 µg/mL (≈ 0.447 to 55.9 µM) | 0.006 to 0.78 µg/mL (≈ 0.0134 to 1.74 µM) | 0.39 µg/mL (≈ 0.872 µM) | 0.05 to 6.25 µg/mL (≈ 0.112 to 14 µM) | MIC90 [14, 18]: 12.5 µg/mL (≈ 27.9 µM); MIC50 [15]: 0.025 µg/mL (≈ 0.0559 µM); MIC50 [16]: 0.39 µg/mL (≈ 0.872 µM); MIC90 [16]: 6.25 µg/mL (≈ 14 µM); MIC90 [17]: 0.78 µg/mL (≈ 1.74 µM); MIC [17]: 0.006 to 0.78 µg/mL (≈ 0.0134 to 1.74 µM); MIC50 [17]: 0.013 µg/mL (≈ 0.0291 µM)
CN1Cc2csc3c(C(=O)O)c(=O)c4cc(F)c(N5CCOC(CO)C5)c1c4n23 (stereo not drawn) [Compound (B), 9,1-(Methylimino)methano-7-fluoro-8-(2-hydroxymethylmorpholino)-5-oxo-5H-thiazolo[3,2-a]quinoline-4-carboxylic acid] | 0.05 µg/mL (≈ 0.119 µM) | ≤ 0.006 µg/mL | ≤ 0.006 µg/mL | ≤ 0.006 µg/mL | 0.025 µg/mL (≈ 0.0596 µM) | 0.025 µg/mL (≈ 0.0596 µM) | 0.025 µg/mL (≈ 0.0596 µM) | 0.05 µg/mL (≈ 0.119 µM) | ≤ 0.006 µg/mL | 0.1 µg/mL (≈ 0.238 µM) | 0.025 µg/mL (≈ 0.0596 µM) | 0.013 µg/mL (≈ 0.031 µM) | 0.2 µg/mL (≈ 0.477 µM) | 0.013 µg/mL (≈ 0.031 µM) | 0.025 µg/mL (≈ 0.0596 µM) | 1.56 µg/mL (≈ 3.72 µM) | 0.1 to 25 µg/mL (≈ 0.238 to 59.6 µM) | 0.006 to 0.78 µg/mL (≈ 0.0143 to 1.86 µM) | 0.39 µg/mL (≈ 0.93 µM) | 0.05 to 3.13 µg/mL (≈ 0.119 to 7.46 µM) | MIC90 [14]: 6.25 µg/mL (≈ 14.9 µM); MIC50 [15]: 0.025 µg/mL (≈ 0.0596 µM); MIC50 [16, 21]: 0.2 µg/mL (≈ 0.477 µM); MIC90 [16, 22]: 3.13 µg/mL (≈ 7.46 µM); MIC90 [17]: 0.78 µg/mL (≈ 1.86 µM); MIC [17]: 0.006 to 0.78 µg/mL (≈ 0.0143 to 1.86 µM); MIC50 [17]: 0.013 µg/mL (≈ 0.031 µM)
COC[C@@H]1CN(c2c(F)cc3c(=O)c(C(=O)O)c4scc5n4c3c2N(C)C5)CCO1 [Compound (O), 9,1-(Methylimino)methano-7-fluoro-8-[(2S)-2-methoxymethylmorpholino)-5-oxo-5H-thiazolo[3,2-a]quinoline-4-carboxylic acid] | 0.05 µg/mL (≈ 0.115 µM) | 0.025 µg/mL (≈ 0.0577 µM) | ≤ 0.006 µg/mL | 0.013 µg/mL (≈ 0.03 µM) | 0.05 µg/mL (≈ 0.115 µM) | 0.05 µg/mL (≈ 0.115 µM) | 0.025 µg/mL (≈ 0.0577 µM) | 0.05 µg/mL (≈ 0.115 µM) | 0.013 µg/mL (≈ 0.03 µM) | 0.2 µg/mL (≈ 0.461 µM) | 0.025 µg/mL (≈ 0.0577 µM) | 0.025 µg/mL (≈ 0.0577 µM) | 0.78 µg/mL (≈ 1.8 µM) | 0.013 µg/mL (≈ 0.03 µM) | 0.05 µg/mL (≈ 0.115 µM) | 3.13 µg/mL (≈ 7.22 µM) | 0.1 to 12.5 µg/mL (≈ 0.231 to 28.8 µM) | 0.006 to 0.78 µg/mL (≈ 0.0138 to 1.8 µM) | 0.39 µg/mL (≈ 0.9 µM) | 0.05 to 3.13 µg/mL (≈ 0.115 to 7.22 µM) | MIC90 [14]: 6.25 µg/mL (≈ 14.4 µM); MIC50 ([15]; 25 clinical strains S. epidermidis, 50% of strains, read-out: MIC50): 0.05 µg/mL (≈ 0.115 µM); MIC50 [16, 21]: 0.2 µg/mL (≈ 0.461 µM); MIC90 [16, 22]: 3.13 µg/mL (≈ 7.22 µM); MIC90 [17]: 0.78 µg/mL (≈ 1.8 µM); MIC [17]: 0.006 to 0.78 µg/mL (≈ 0.0138 to 1.8 µM); MIC50 [17]: 0.013 µg/mL (≈ 0.03 µM)
CN1Cc2csc3c(C(=O)O)c(=O)c4cc(F)c(N5CCO[C@H](CO)C5)c1c4n23 [Compound (M), 9,1-(Methylimino)methano-7-fluoro-8-[ (2S)-2-hydroxymethylmorpholino]-5-oxo-5H-thiazolo[3,2-a]quinoline-4-carboxylic acid] | 0.05 µg/mL (≈ 0.119 µM) | ≤ 0.006 µg/mL | ≤ 0.006 µg/mL | ≤ 0.006 µg/mL | 0.05 µg/mL (≈ 0.119 µM) | 0.05 µg/mL (≈ 0.119 µM) | 0.025 µg/mL (≈ 0.0596 µM) | 0.05 µg/mL (≈ 0.119 µM) | ≤ 0.006 µg/mL | 0.1 µg/mL (≈ 0.238 µM) | 0.025 µg/mL (≈ 0.0596 µM) | 0.013 µg/mL (≈ 0.031 µM) | 0.2 µg/mL (≈ 0.477 µM) | 0.013 µg/mL (≈ 0.031 µM) | 0.025 µg/mL (≈ 0.0596 µM) | 1.56 µg/mL (≈ 3.72 µM) | 0.1 to 25 µg/mL (≈ 0.238 to 59.6 µM) | 0.006 to 0.78 µg/mL (≈ 0.0143 to 1.86 µM) | 0.39 µg/mL (≈ 0.93 µM) | 0.05 to 3.13 µg/mL (≈ 0.119 to 7.46 µM) | MIC90 [14, 18]: 3.13 µg/mL (≈ 7.46 µM); MIC50 [15]: 0.025 µg/mL (≈ 0.0596 µM); MIC50 [16, 21]: 0.2 µg/mL (≈ 0.477 µM); MIC90 [16, 22]: 3.13 µg/mL (≈ 7.46 µM); MIC90 [17]: 0.78 µg/mL (≈ 1.86 µM); MIC [17]: 0.006 to 0.78 µg/mL (≈ 0.0143 to 1.86 µM); MIC50 [17]: 0.013 µg/mL (≈ 0.031 µM)

From US5191079A, “Quinolinecarboxylic acid derivatives” (priority 1990, dated 1993)
